{
  "source": "patent US9598441B2",
  "about": "“Therapeutic compounds and methods” (Wayne State University, priority 2011, dated 2017)",
  "key": {"[1]": {"tested_on": "cell cycle progression", "assay": "Flow-cytometric cell cycle analysis (propidium iodide)", "format": "cell-based", "procedure": "FIGS. 5A-5D: CFM-4 suppresses cell growth in part by elevating CARP-1 and diminishing cyclin B1 levels. In panel A, cells were treated with indicated agents for noted times, labeled with propidium iodide, and sorted by flow cytometry. Histogram and table below represent cell numbers in various phases of cell cycle. In panel B, cells were treated with indicated dose of CFM-4 for noted times, in panel C, cells were either untreated (−) or treated (+) with CFM-4 for noted dose and time, while in panel D, cells were either treated with vehicle control (DMSO) or with indicated agents for noted dose and time. The cell lysates (50 μg/lane) in panels B-D were analyzed by WB for levels of CARP-1, Cyclin B1, Cdh1, APC-2, CDKIs p21^WAF1/CIP1, p27^KIP1 and actin proteins as in methods.\nCARP-1 is required for CFM-4-dependent cell growth inhibition. Because APC/C E3 ubiquitin ligase functions to regulate cell cycle and CFM-4 binds with CARP-1 to inhibit its binding with APC-2, it was next determined whether the SMIs interfere with cell cycle progression. […] The APC/C^Cdc20 E3 ubiquitin ligase regulates turnover of the mitotic cyclin B1 and Cdc20 during the G2M phase and exit to mitosis while APC/C^Cdh1 E3 ligase targets Cdc20 as well as SCF ligase to accomplish exit from mitosis and transition to G0/G1 phases. Attenuation of SCF ligase by APC/C^Cdh1, in turn, results in elevated levels of CDKIs p21^WAF1/CIP1 and p27^KIP1. […] To investigate this possibility it was determined whether CFM-4 binding with CARP-1 modulated CARP-1 levels. […] Levels of both the p21^WAF1/CIP1 and p27^KIP1 CDKIs were elevated when cells were exposed to CFM-4 for 0.5-1.0 h time periods (FIG. 5B). This may likely be due to the initial response of the cells to stress following exposure to CFM-4. […] This loss of CDKI expression could be due to attenuation of APC/C^Cdh1 activity following modest reduction in the Cdh1 levels as well as inability of CARP-1 to bind with APC-2 over prolonged periods of treatments with CFM-4. […]"}, "[2]": {"tested_on": "apoptosis of HBC cells", "assay": "ELISA-based DNA fragmentation apoptosis assay", "format": "cell-based, human", "procedure": "For apoptosis ELISA assay, 4−5×10^2 cells were seeded in 96-well plates and treated essentially as indicated in the MTT assay above. Untreated as well as treated cells were lysed, and levels of mono and oligo-nucleosomal DNA fragments in the lysates were determined by measuring optical density of each sample at 405 nm and 495 nm wavelengths. […] For TUNEL labeling, the cells were treated with various agents, fixed, labeled and photographed essentially as detailed in immuno-localization protocols described before (Zhang, L., Levi, E., Majumder, P., Yu, Y., Aboukameel, A., Du, J., Xu, H., Mohammad, R. M., Hatfield, J. S., Wali, A., Adsay, V., Majumdar, A. P. N., and Rishi, A. K. (2007) Mol. Cancer. Ther. 6(5), 1661-1672). […] Cell lysates derived from vehicle DMSO (Control) or CFM-4-treated cells were added to the wells that had immobilized fluorogenic caspase-3, caspase-8, caspase-9, or caspase-2 substrates. The fluorescence released from the activated caspase-dependent cleavage of respective substrate was detected by a plate reader at the excitation and emission wavelengths of 380 nm and 460 nm, respectively.\nCFM-4 suppresses cell growth in part by inducing apoptosis: In light of the data in FIG. 5A showing significant accumulation of CFM-4-treated cells in the sub G0 phase, and the fact that cells undergoing apoptosis often accumulate in the sub G0 fractions, it was next ascertained the extent of apoptosis stimulation by these agents by utilizing an ELISA-based DNA fragmentation assay. […] The intrinsic, mitochondria-mediated and the extrinsic, extracellular receptor-activated, apoptosis signaling pathways are transduced by activation of various caspases that promote eventual breakdown of cellular proteins, organelles and plasma membrane. […] It was next determined whether apoptosis stimulation by CFM-4 involved activation of caspases 8 or 9 or both. […] The activation of caspases in the presence of CFM-4 was further profiled by utilizing a fluorescence-based quantitative assay as detailed in methods. […]"}},
  "data": [
    {"smiles": "COc1cccc2c1C(=O)c1c(O)c3c(c(O)c1C2=O)C[C@@](O)(C(=O)CO)C[C@@H]3O[C@H]1C[C@H](N)[C@H](O)[C@H](C)O1", "note": "[ADR, adriamycin, reference compound]", "values": [
      {"measurement": "cell cycle effect (flow cytometry)", "setting": "[1]", "result": "induced G2M cell cycle arrest"},
      {"measurement": "apoptosis level (DNA fragmentation ELISA)", "setting": "[2]", "result": "significantly elevated levels of apoptosis"}
    ]},
    {"smiles": "Cc1cc(Br)cc2c1NC(=O)/C2=C1\\SC(=S)NC1=O", "note": "[CFM-1, (Z)-5-(5-bromo-7-methyl-2-oxoindolin-3-ylidene)-2-thioxothiazolidin-4-one]", "values": [
      {"measurement": "cell cycle effect (flow cytometry)", "setting": "[1]", "result": "induced G2M cell cycle arrest"},
      {"measurement": "apoptosis level (DNA fragmentation ELISA)", "setting": "[2]", "result": "without significant increase in apoptosis"}
    ]},
    {"smiles": "O=C1N(Cc2ccccc2Cl)c2ccccc2C12NN=C(c1ccccc1)S2", "note": "(stereo not drawn) [CFM-4, 1-(2-chlorobenzyl)-5′-phenyl-3′H-spiro[indoline-3,2′-[1,3,4]thiadiazol]-2-one]", "values": [
      {"measurement": "cell cycle effect (flow cytometry)", "setting": "[1]", "result": "induced G2M cell cycle arrest"},
      {"measurement": "apoptosis level (DNA fragmentation ELISA)", "setting": "[2]", "result": "significantly elevated levels of apoptosis"}
    ]}
  ]
}
